In brackets after ≈: the same amount, converted by molar mass.
Experiments:
Assay in all cases: ≥ marks a high value that may be exact or a test limit, other limits are often not marked, values filed in µg/mL are converted to µM
[1] = test system: Escherichia coli DH5alpha
[2] = test system: Zymomonas mobilis ATCC 10988
[3] = test system: Escherichia coli BW25113 ΔsbmA
Escherichia coli BW25113 = test system: Escherichia coli BW25113
[4] = test system: Escherichia coli ATCC 25922
[5] = test system: Pseudomonas aeruginosa ATCC 27853
[6] = test system: Staphylococcus aureus ATCC 25923
[7] = test system: Acinetobacter baumannii ATCC 19606
[8] = test system: Klebsiella pneumoniae ATCC 700603
[9] = test system: Acinetobacter baumannii 9931
Escherichia coli 804 = test system: Escherichia coli 804
[10] = test system: Pseudomonas aeruginosa ATCC 27853(RifR)
Staphylococcus aureus 75 = test system: Staphylococcus aureus 75
[11] = test system: Acinetobacter baumannii ATCC 19606(RifR)
[12] = test system: Escherichia coli ATCC 25922(RifR)
[13] = test system: Klebsiella pneumoniae ATCC 700603(CipR)
[14] = test system: Pseudomonas aeruginosa 50
[15] = test system: Klebsiella pneumoniae ATCC 700603(GenR)
[16] = test system: Pseudomonas aeruginosa ATCC 9027
[17] = test system: Pseudomonas aeruginosa ATCC 27853(ImiR)
[18] = test system: Escherichia coli ATCC 25922(GenR)
[19] = test system: Staphylococcus aureus ATCC 29213
[20] = test system: Escherichia coli ATCC 25922(CipR)
[21] = test system: Staphylococcus aureus 113
[22] = test system: Acinetobacter baumannii ATCC 19606(GenR)
[23] = test system: Klebsiella pneumoniae ATCC 700603(ImiR)
[24] = test system: Acinetobacter baumannii ATCC 19606(ImiR)
[25] = test system: Escherichia coli ATCC 25922(ImiR)
[26] = test system: Klebsiella pneumoniae ATCC 700603(RifR)
[27] = test system: Bacillus subtilis ATCC 23857
[28] = test system: Staphylococcus epidermidis ATCC 12228
[29] = test system: Pseudomonas aeruginosa ATCC 27853(CipR)
[30] = test system: Pseudomonas aeruginosa ATCC 27853(GenR)
[31] = test system: Acinetobacter baumannii ATCC 19606(CipR)
Escherichia coli 780 = test system: Escherichia coli 780
[32] = test system: Acinetobacter baumannii 97830
[33] = test system: Pseudomonas aeruginosa 73

| Structure (SMILES) | MIC [5] [µM] | MIC [7] [µM] | MIC [8] [µM] | MIC [9] [µM] | MIC (Escherichia coli 804) [µM] | MIC (Staphylococcus aureus 75) [µM] | MIC [14] [µM] | MIC [16] [µM] | MIC [19] [µM] | MIC [21] [µM] | MIC [27] [µM] | MIC [28] [µM] | MIC (Escherichia coli 780) [µM] | other results |
| --- | --- | --- | --- | --- | --- | --- | --- | --- | --- | --- | --- | --- | --- | --- |
| CC[C@H](C)[C@H](NC(=O)[C@H](CCCN=C(N)N)NC(=O)[C@H](CCC(N)=O)NC(=O)[C@@H](NC(=O)[C@@H](NC(=O)[C@H](CCCN=C(N)N)NC(=O)[C@H](CCCCN)NC(=O)[C@@H](N)CC(C)C)[C@@H](C)CC)C(C)C)C(=O)N[C@@H](CCCCN)C(=O)N[C@@H](CC(=O)O)C(=O)N[C@@H](Cc1ccccc1)C(=O)N[C@@H](CC(C)C)C(=O)N[C@@H](CCCN=C(N)N)C(N)=O [LKRIVQRIKDFLR] | – | – | – | – | – | – | – | – | – | – | – | – | – | MIC [1]: ≥ 119 µM; MIC [2]: ≥ 119 µM |
| CC[C@H](C)[C@H](NC(=O)[C@H](CCCN=C(N)N)NC(=O)[C@@H](N)Cc1c[nH]c2ccccc12)C(=O)N[C@@H](CCCN=C(N)N)C(=O)N1CCC[C@H]1C(=O)N[C@@H](CCCN=C(N)N)C(=O)N1CCC[C@H]1C(=O)N1CCC[C@H]1C(=O)N[C@@H](CCCN=C(N)N)C(=O)N[C@@H](CC(C)C)C(=O)N1CCC[C@H]1C(=O)N[C@@H](CCCN=C(N)N)C(=O)N1CCC[C@H]1C(=O)N[C@@H](CCCN=C(N)N)C(=O)N1CCC[C@H]1C(=O)N[C@@H](CCCN=C(N)N)C(=O)O [WRIRPRPPRLPRPRPR] | > 64 | 32 (≈ 67.4 µg/mL) | 16 (≈ 33.7 µg/mL) | – | – | – | – | – | – | – | – | – | – | MIC [3]: 12 µM (≈ 25.3 µg/mL); MIC (Escherichia coli BW25113): 1 µM (≈ 2.11 µg/mL); MIC [4]: 1 µM (≈ 2.11 µg/mL); MIC [6]: > 64 µM |
| NCCCC[C@H](NC(=O)[C@H](CCCN=C(N)N)NC(=O)[C@H](Cc1c[nH]c2ccccc12)NC(=O)[C@H](CCCCN)NC(=O)[C@H](CCCN=C(N)N)NC(=O)[C@H](Cc1c[nH]c2ccccc12)NC(=O)[C@H](CCCCN)NC(=O)[C@H](CCCN=C(N)N)NC(=O)[C@H](Cc1c[nH]c2ccccc12)NC(=O)[C@H](CCCCN)NC(=O)[C@H](CCCN=C(N)N)NC(=O)[C@@H](N)Cc1c[nH]c2ccccc12)C(N)=O [WRKWRKWRKWRK] | 4 (≈ 7.6 µg/mL) | 8 (≈ 15.2 µg/mL) | 16 (≈ 30.4 µg/mL) | 8 (≈ 15.2 µg/mL) | 16 (≈ 30.4 µg/mL) | 4 (≈ 7.6 µg/mL) | 4 (≈ 7.6 µg/mL) | 4 (≈ 7.6 µg/mL) | 4 (≈ 7.6 µg/mL) | 2 (≈ 3.8 µg/mL) | 2 (≈ 3.8 µg/mL) | 4 (≈ 7.6 µg/mL) | 8 (≈ 15.2 µg/mL) | MIC [10]: 4 µM (≈ 7.6 µg/mL); MIC [11]: 8 µM (≈ 15.2 µg/mL); MIC [12]: 16 µM (≈ 30.4 µg/mL); MIC [13]: ≥ 32 µM; MIC [15]: ≥ 32 µM; MIC [17]: 8 µM (≈ 15.2 µg/mL); MIC [18]: 8 µM (≈ 15.2 µg/mL); MIC [20]: 8 µM (≈ 15.2 µg/mL); MIC [22]: 16 µM (≈ 30.4 µg/mL); MIC [23]: 16 µM (≈ 30.4 µg/mL); MIC [24]: 16 µM (≈ 30.4 µg/mL); MIC [25]: 16 µM (≈ 30.4 µg/mL); MIC [26]: 16 µM (≈ 30.4 µg/mL); MIC [29]: 4 µM (≈ 7.6 µg/mL); MIC [30]: ≥ 32 µM; MIC [31]: 16 µM (≈ 30.4 µg/mL) |
| C[C@H](N)C(=O)N[C@@H](CCCN=C(N)N)C(=O)N[C@@H](CCCN=C(N)N)C(=O)N[C@@H](Cc1c[nH]c2ccccc12)C(=O)N[C@@H](Cc1c[nH]c2ccccc12)C(=O)N[C@@H](Cc1c[nH]c2ccccc12)C(=O)N[C@@H](CCCN=C(N)N)C(=O)N[C@@H](CCCN=C(N)N)C(=O)N[C@@H](C)C(N)=O [ARRWWWRRA] | 128 (≈ 172 µg/mL) | 128 (≈ 172 µg/mL) | > 128 | ≥ 64 | ≥ 64 | 16 (≈ 21.5 µg/mL) | ≥ 128 | 128 (≈ 172 µg/mL) | 32 (≈ 43 µg/mL) | 16 (≈ 21.5 µg/mL) | 8 (≈ 10.7 µg/mL) | 8 (≈ 10.7 µg/mL) | ≥ 32 | MIC [32]: ≥ 128 µM; MIC [33]: ≥ 128 µM |

— DBAASP
